Assay results taken from patent publication US10214492B2, “Heterocyclic inhibitors of MCT4” (Vettore, LLC, priority 2016, dated 2019).

Tests used:
MCT4 = MCT4 (Homo sapiens (Human), UniProt O15427); assay: Assay 3: MCT4-mediated lactate transport in MDA-MB-231 breast cancer cells; format: cell-based; conditions: MDA-MB-231 cells; lactate transport
In short: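 MDA-MB-231 cells loaded with BCECF-AM, 5 min at 37° C, washed and resuspended in Tyrode's Solution, pH 7.4. MCT4 lactate/proton symport followed as the intracellular pH change reported by BCECF fluorescence.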

MCT1 = MCT1 (Homo sapiens (Human), UniProt P53985); assay: Assay 4: MCT1-mediated lactate transport in BT20 breast cancer cells; format: cell-based; conditions: Table 27
Sequence of MCT1 (P53985 whole entry): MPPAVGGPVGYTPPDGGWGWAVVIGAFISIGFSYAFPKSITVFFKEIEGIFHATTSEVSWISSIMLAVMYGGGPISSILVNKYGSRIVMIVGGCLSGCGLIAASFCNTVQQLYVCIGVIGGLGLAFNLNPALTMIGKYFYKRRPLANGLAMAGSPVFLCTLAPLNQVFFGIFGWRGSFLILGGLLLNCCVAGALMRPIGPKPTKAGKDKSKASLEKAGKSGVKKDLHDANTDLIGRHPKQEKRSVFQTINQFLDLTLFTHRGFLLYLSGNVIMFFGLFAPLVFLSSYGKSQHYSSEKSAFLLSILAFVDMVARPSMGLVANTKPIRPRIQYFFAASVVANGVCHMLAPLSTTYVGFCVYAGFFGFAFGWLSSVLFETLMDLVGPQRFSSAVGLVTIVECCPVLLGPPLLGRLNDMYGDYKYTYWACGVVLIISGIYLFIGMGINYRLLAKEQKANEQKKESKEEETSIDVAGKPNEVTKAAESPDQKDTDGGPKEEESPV
Sequence of MCT1 (P35613 140-385 partner): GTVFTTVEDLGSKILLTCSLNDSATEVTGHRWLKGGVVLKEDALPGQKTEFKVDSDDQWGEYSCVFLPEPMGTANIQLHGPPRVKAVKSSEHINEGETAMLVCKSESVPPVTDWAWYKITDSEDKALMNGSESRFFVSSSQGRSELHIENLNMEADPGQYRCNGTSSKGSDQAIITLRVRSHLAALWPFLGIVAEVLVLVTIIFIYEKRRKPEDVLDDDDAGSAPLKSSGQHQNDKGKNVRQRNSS
In short: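 BT20 cells loaded with BCECF-AM (30 mM DMSO stock) for 5 min at 37° C, washed and resuspended in Tyrode's Solution pH 7.4. Lactate uptake tracked via BCECF intracellular pH signal after adding 10 mM L-lactate.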

[1] = Metabolic stability in human liver microsomes (in vitro t1/2); format: in vitro ADME; conditions: for half-life at 2 µM: read-out: Human microsome t1/2, min; for Human microsome % 60 min: human liver microsomes
Protocol: (§1) The following are assays that may be used to evaluate the metabolic stability of compounds of Formula (I) in human, rat, or mouse microsomes. The assays follow a common procedure recited below. 1. […] Two separated experiments were performed as follows. a) With NADPH: 10 μL of 20 mg/mL liver microsomes and 40 μL of 10 mM NADPH were added to the incubations. […] The final concentration of microsomes was 0.5 mg/mL. 3. The reaction was started with the addition of 4 μL of 200 μM control compound or test compound solutions. Verapamil was used as positive control in this study. The final concentration of test compound or control compound was 2 μM. 4. Aliquots of 50 μL were taken from the reaction solution at 0, 15, 30, 45 and 60 min. […] Samples were centrifuged at 3,220 g for 40 minutes. A 90 μL aliquot of the supernatant was mixed with 90 μL of ultra-pure H2O and then used for LC-MS/MS analysis. 5. Data analysis. All calculations were carried out using Microsoft Excel. Peak areas were determined from extracted ion chromatograms. The slope value, k, was determined by linear regression of the natural logarithm of the remaining percentage of the parent drug vs. incubation time curve. The in vitro half-life (in vitro t1/2) was determined from the slope value: in vitro t1/2=−(0.693)/k.

[2] = Metabolic stability in rat liver microsomes (in vitro t1/2); format: in vitro ADME; conditions: for half-life at 2 µM: read-out: Rat microsome t1/2, min; for Rat microsome % 60 min: rat liver microsomes
Protocol: as §1

[3] = Metabolic stability in mouse liver microsomes (in vitro t1/2); format: in vitro ADME; conditions: for half-life at 2 µM: mouse liver microsomes 0.5 mg/mL, 2 μM compound, read-out: Mouse microsome t1/2, min; for Mouse microsome % 60 min: mouse liver microsomes
Protocol: as §1

[4] = human liver microsomes 0.5 mg/mL, 2 μM compound
[5] = rat liver microsomes 0.5 mg/mL, 2 μM compound

Sequence of MCT4 (O15427 whole entry, looked up): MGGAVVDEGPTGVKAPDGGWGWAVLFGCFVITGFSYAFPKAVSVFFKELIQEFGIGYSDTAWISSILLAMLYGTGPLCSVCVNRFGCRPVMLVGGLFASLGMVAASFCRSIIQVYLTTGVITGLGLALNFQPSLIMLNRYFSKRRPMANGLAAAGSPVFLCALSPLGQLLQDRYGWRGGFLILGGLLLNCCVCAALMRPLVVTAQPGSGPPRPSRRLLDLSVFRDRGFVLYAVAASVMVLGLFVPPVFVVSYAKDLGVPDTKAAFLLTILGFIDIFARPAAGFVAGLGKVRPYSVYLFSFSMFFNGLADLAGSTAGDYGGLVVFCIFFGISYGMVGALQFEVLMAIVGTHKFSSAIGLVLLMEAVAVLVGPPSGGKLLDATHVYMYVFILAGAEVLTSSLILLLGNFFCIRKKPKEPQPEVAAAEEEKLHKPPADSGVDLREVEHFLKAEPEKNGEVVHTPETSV
Sequence of MCT4 (P35613 whole entry partner, looked up): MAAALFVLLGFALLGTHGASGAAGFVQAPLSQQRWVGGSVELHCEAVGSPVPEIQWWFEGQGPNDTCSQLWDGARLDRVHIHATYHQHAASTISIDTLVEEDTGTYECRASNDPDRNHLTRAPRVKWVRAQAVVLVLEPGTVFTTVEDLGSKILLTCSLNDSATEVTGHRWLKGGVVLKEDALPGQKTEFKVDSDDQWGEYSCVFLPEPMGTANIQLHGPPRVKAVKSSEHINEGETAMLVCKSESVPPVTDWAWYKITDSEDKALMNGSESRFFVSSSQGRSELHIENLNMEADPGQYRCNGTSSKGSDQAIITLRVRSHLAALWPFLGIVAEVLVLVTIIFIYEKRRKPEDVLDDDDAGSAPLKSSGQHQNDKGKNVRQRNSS

Structure (SMILES)	IC50 (MCT4) [nM]	IC50 (MCT1) [nM]	half-life at 2 µM [1, 4] [h]	Human microsome % 60 min [1] [%]	half-life at 2 µM [2, 5] [h]	Rat microsome % 60 min [2] [%]	half-life at 2 µM [3] [h]	Mouse microsome % 60 min [3] [%]	Human microsome t1/2, min [1, 4]	Rat microsome t1/2, min [2, 5]
COc1cc(-c2cc(COC(C)(C)C(=O)O)nn2Cc2ccccc2Cl)cs1 [Example 66, 2-([1-[(2-chlorophenyl)methyl]-5-(5-methoxythien-3-yl)-1H-pyrazol-3-yl]-methoxy)-2-methylpropanoic acid]	–	–	2	73	–	–	4.33	83	–	–
COc1csc(-c2cc(COC(C)(C)C(=O)O)nn2Cc2ccccc2Cl)c1 [Example 65, 2-([1-[(2-Chlorophenyl)methyl)-5-(4-methoxythien-2-yl)-1H-pyrazol-3-yl]methoxy)-2-methylpropanoic acid]	–	–	2.33	78	–	–	9.33	92	–	–
Cn1ncc2cccc(-n3nc(COC(C)(C)C(=O)O)cc3-c3cccc(OC4CCC4)c3)c21 [Example 166, 2-([5-(3-Cyclobutoxyphenyl)-1-(1-methyl-1H-indazol-7-yl)-1H-pyrazol-3-yl]-methoxy)-2-methylpropanoic acid]	5.9	53000	21.1	94	–	102	3.23	82	–	∞
CC(C)(OCc1cc(-c2cccc(OC3CC3)c2)n(Cc2ccccc2Cl)n1)C(=O)O [Example 39, 2-([1-[(2-Chlorophenyl)methyl]-5-[3-(cyclopropoxy)phenyl]1H-pyrazol-3-yl]methoxy)-2-methylpropanoic acid]	–	–	6.33	89	–	–	6.17	88	–	–
COc1cccc(-c2cc(COC(C)(C)C(=O)O)nn2-c2ccccc2Cl)c1 [Example 57, 2-([1-(2-chlorophenyl)-5-(3-methoxy-phenyl)-1H-pyrazol-3-yl]methoxy)-2-methylpropanoic acid]	–	–	3.17	80	–	–	> 33.3	100	–	–
CC(C)COc1cccc(-c2cc(COC(C)(C)C(=O)O)nn2Cc2ccccc2Cl)c1 [Example 27, 2-([1-[(2-Chlorophenyl)methyl]-5-(3-(2-methyl-propoxy)phenyl)1H-pyrazol-3-yl]methoxy)-2-methylpropanoic acid]	–	–	0.833	43	–	–	1.02	50	–	–
COc1cccc(-c2cc(COC(C)(C)C(=O)O)nn2Cc2ccccc2OC)c1 [Example 36, 2-([5-(3-Methoxyphenyl)-1-[(2-methoxyphenyl)methyl]1H-pyrazol-3-yl]methoxy)-2-methylpropanoic acid]	–	–	4.83	85	–	–	20	99	–	–
CC(C)Oc1cccc(-c2cc(COC(C)(C)C(=O)O)nn2Cc2ccccc2Cl)c1 [Example 35, 2-([1-[(2-Chlorophenyl)methyl]-5-(3-isopropoxyphenyl)1H-pyrazol-3-yl]methoxy)-2-methylpropanoic acid]	–	–	1.92	67	–	–	0.583	31	–	–

Continued, in another order:

IC50 (MCT4) [nM]	IC50 (MCT1) [nM]	half-life at 2 µM [1, 4] [h]	Human microsome % 60 min [1] [%]	half-life at 2 µM [2, 5] [h]	Rat microsome % 60 min [2] [%]	half-life at 2 µM [3] [h]	Mouse microsome % 60 min [3] [%]	Human microsome t1/2, min [1, 4]	Structure (SMILES)	Rat microsome t1/2, min [2, 5]
6.2	23000	0.617	32	0.183	2	0.633	32	–	CC(C)(OCc1cc(-c2cccc(OC3CC3)c2)n(Cc2ccccc2N2CCCC2)n1)C(=O)O [Example 202, 2-([5-(3-Cyclopropoxyphenyl)-1-[[2-(pyrrolidin-1-yl)phenyl]methyl]|-1H-pyrazol-3-yl]methoxy)-2-methylpropanoic acid]	–
0.32	> 33000	0.867	62	1.22	70	0.633	37	–	CC(C)(C)COc1cccc(-c2cc(COC(C)(C)C(=O)O)nn2-c2ccccc2N2CCC2)c1 [Example 155, 2-([1-[2-(Azetidin-1-yl)phenyl]-5-[3-(2,2-di-methylpropoxy)phenyl]-1H-pyrazol-3-yl]-methoxy)-2-methylpropanoic acid]	–
3.2	38000	1.13	56	0.617	33	0.633	34	–	CC(C)(OCc1cc(-c2cccc(OC3CC3)c2)n(-c2ccccc2N2CCCC2)n1)C(=O)O [Example 221, 2-([5-(3-Cyclopropoxyphenyl)-1-[2-(pyrrolidin-1-yl)phenyl]-1H-pyrazol-3-yl]-methoxy)-2-methylpropanoic acid]	–
3.9	94000	–	110	5.58	90	16.7	94	∞	CC[C@@](C)(OCc1cc(-c2cc(OC)cc(OC)c2)n(-c2ccccc2Cl)n1)C(=O)O [Example 222, (2R)-2-([1-(2-Chlorophenyl)-5-(3,5-dimethoxyphenyl)-1H-pyrazol-3-yl]-methoxy)-2-methylbutanoic acid]	–
1.9	38000	1.47	62	0.633	32	0.617	33	–	CCOc1ccccc1Cn1nc(COC(C)(C)C(=O)O)cc1-c1cc(Cl)cc(OC)c1 [Example 196, 2-([5-(3-Chloro-5-methoxyphenyl)-1-[(2-ethoxyphenyl)methyl]1H-pyrazol-3-yl]-methoxy)-2-methylpropanoic acid]	–
–	78000	7.22	88	5.03	88	21.7	97	–	CCOc1cccc(-n2nc(COC(C)(C)C(=O)O)cc2-c2cc(OC)cc(OC)c2)c1 [Example 243, 2-([5-(3,5-Dimethoxyphenyl)-1-(3-ethoxyphenyl)-1H-pyrazol-3-yl]methoxy)-2-methylpropanoic acid]	–
–	–	3.1	80	4.4	85	1.82	72	–	CC(C)Cc1ncc(-c2cc(COC(C)(C)C(=O)O)nn2Cc2ccccc2Cl)o1 [Example 134, 2-([1-[(2-Chlorophenyl)methyl]-5-[2-(2-methylpropyl)-1,3-oxazol-5-yl]-1H-pyrazol-3-yl]methoxy)-2-methylpropanoic acid]	–
4	22000	3.3	81	0.85	44	6.83	101	–	CC[C@](C)(OCc1cc(-c2cccc(OC)c2)n(Cc2ccccc2Cl)n1)C(=O)O [Example 120, (2S)-2-([1-[(2-chlorophenyl)methyl]-5-(3-methoxyphenyl)-1H-pyrazol-3-yl]methoxy)-2-methylbutanoic Acid]	–
–	–	2.48	78	12.5	97	161	102	–	CCn1ncc2ccc(-c3cc(COC(C)(C)C(=O)O)nn3-c3ccccc3Cl)cc21 [Example 157, 2-([1-(2-chlorophenyl)-5-(1-ethyl-1H-indazol-6-yl)-1H-pyrazol-3-yl]methoxy)-2-methylpropanoic acid]	–
1.7	–	3.12	78	2.88	81	3.82	81	–	Cn1ncc2cccc(-n3nc(COC(C)(C)C(=O)O)cc3-c3cccc(OCC4CCC4)c3)c21 [Example 168, 2-([5-[3-(cyclobutylmethoxy)phenyl]-1-(1-methyl-1H-indazol-7-yl)-1H-pyrazol-3-yl]-methoxy)-2-methylpropanoic acid]	–
